Results as given in patent US9770430B2, “Desferrioxamine-metal complexes for the treatment of immune-related disorders” (priority 2009, dated 2017).

Key:
[1] = test system: ovalbumin-induced asthma; assay: Ovalbumin-induced asthma, prophylactic treatment model (lung ferritin); type: in vivo, BALB/c mice; conditions: asthmatic mice, 1 and 0.3 mg/kg i.p., then 0.3 mg/kg i.n.
Method: Ferritin concentration was quantified using an indirect ‘sandwich’ ELISA assay in accordance with a procedure developed previously in our laboratory. Briefly, ELISA 96-well micro plates were pre-coated with goat anti-human L-ferritin antibody. Rabbit anti-human H-ferritin was used as the secondary antibody. Plates were treated with goat anti-rabbit IgG conjugated with β-galactosidase. Chlorophenol Red-β-D-Galactopyranoside was then added and the plates analyzed using a microplate reader with a test (570 nm) and reference (630 nm) filters.
• Twelve-week-old Balb/c mice were administered 10 μg (100 μl) ovalbumin (OVA) dissolved with 3 mg Al(OH)3 in 0.9% saline intraperitoneally (i.p.) on days 0, 7 and 14, and 10 μg (50 μl) OVA intranasally (i.n.) on days 20, 23, 25, 27, 29, 31, 34, 36, 37, 41, 43 and 45. […]
To estimate the anti-asthmatic effect of the complexes the following parameters were measured: the concentration of ferritin in the lungs, the presence of inflammatory cells infiltration into the lungs, and the amounts of macrophages, eosinophils, lymphocytes and neutrophils in bronchoalveolar lavages (BALs).

[2] = complex of desferrioxamine with the named metal ion; cited from earlier work
[3] = test system: salicylate hydroxylation to 2,3-DHBA; assay: 2,3-DHBA assay in blood of high energy diet fed sand rats; type: in vivo, sand rat (Psammomis obesus); conditions: 2.5 mg/kg i.p. three times a week
Method: To measure 2,3-DHBA the animals were injected i.p. with 100 mg/kg salicylate in saline buffer. As a product of salicylate hydroxylation, the 2,3-DHBA was quantified using HPLC coupled with electrochemical detection (HPLC-ECD), using a Varian 5000 liquid chromatograph (Varian Analytical Instruments, Walnut Creek, Calif., USA) equipped with a Rheodyne 7125 sample injector (20 μl loop; Rheodyne L. P., Rohnert Park, Calif., USA). The column used for separation of salicylate and DHBA was a 250×4 mm LiChrospher 100RP-18, 5 μm (Merck, Darmstadt, Germany). The chromatograms were recorded using a PC-based data acquisition and processing system (EZChrom Elite, San-Ramon, Calif., USA).
Nineteen sand rats were divided into three groups. Group I (n=4) received a standard diet and was used as a control. Groups II (n=7) and III (n=8) received a high energy diet, leading to diabetes development. Group III was treated with 2.5 mg Zn-DFO i.p. per kg body weight three times a week, while Group II was injected with saline according to the same pattern. After the blood glucose and body weight monitoring for 63 days, glucose tolerance test was performed and blood level of 2,3-DHBA and catechols was also measured. As previously done, cataract formation was tested as well. […] The concentration of actin, Trx and TrxR were measured by Western Blotting, and the activity of Msr was analyzed by HPLC as described.

[4] = test system: high energy diet-induced Type II diabetes; assay: Sand rat high energy diet Type II diabetes model, glucose tolerance test and cataract formation (Example 6); type: in vivo, sand rat (Psammomis obesus)
From the text: Sand rats (Psammomis Obesus) were used as a model for Type 2 diabetes. The sand rats transferred onto high energy diet develop a severe form of Type 2 diabetes, including high blood glucose level, increase in body weight, and cataract development (eye lens opacification).
The sand rats were divided into groups. The animals from the Group I received the standard diet, serving as a control, whereas animals from the other indicated groups received high energy diet, leading to diabetes development. The high-energy diet ed mice were either untreated, or treated with intra-peritoneal injections of 2.5 mg/kg body weight Ga-DFO, Zn-DFO, DFO alone, Zn, Ga or lipoic acid (LA), either twice or three times per week, as indicated, for the duration of the experiment. The blood glucose and body weight of the animals were monitored throughout the experiment.
Forty two sand rats were divided into seven groups, six animals in each. The animals from Group I received the standard diet and used as a control. The animals from the Groups II, III, IV, V, VI and VII received high energy diet, leading to diabetes development, while Groups III, IV and VII were treated with Zn-DFO, Ga-DFO and DFO alone, respectively. The Groups V and VI received Zn and Ga, in their chloride salt form, alone respectively. Administration of the different treatments was as described, and the experiment lasted for 53 days. Glucose tolerance test was performed at the end of experiment. The cataract formation was tested as well.

In the case of `CC(=O)N(O)CCCCCNC(=O)CCC(=O)N([O-])CCCCCNC(=O)CCC(=O)N([O-])CCCCCN.[Zn+2]` [Zn-DFO, Zinc-desferrioxamine], the lung ferritin level [1] is listed as 0.6 ± 0.2 µg/mg, the “relative stability constants for the complexes of desferrioxamine” value [2] is listed as 10^11 and the “2,3-DHBA blood concentration” value [3] is listed as “maintained almost baseline values”. For the same compound, the “three hours response to an orally-administered glucose dose, value above the zero (standard diet Group I)” value ([4]; 200 mg glucose per 100 g body weight, end of 53 day experiment, high energy diet) was 20 mg/dL and the Cataract formation ([4]; high energy diet (HE) sand rats, 53 days) was 22%.
